Laboratory results as given in PubChem BioAssay AID328 (DTP/NCI, 2004).
“And” between values parts separate entries of the source, which are not always exact repeats. Equal entries are not always repeated. Inconclusive results and toxic doses are left out.

Tested on: BDF1 mice, P388 leukemia ip, median survival T/C
Assay: NCI In Vivo Anticancer Drug Screen. Data for tumor model P388 Leukemia (intraperitoneal) in B6D2F1 (BDF1) mice
Conditions: endpoint: median survival time, higher = longer survival
Summary of the method: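 Reported as T/C, where T is the survival measurement in dosed animals and C the same measurement in vehicle controls.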

[1] = dose: 100.0 mg/kg/injection, schedule: Q01DX009 (ip), vehicle: Klucel (hydroxypropylcellulose) (HPC)
[2] = dose: 100.0 mg/kg/injection, schedule: Q04DX003 (ip), vehicle: Klucel (hydroxypropylcellulose) (HPC)
[3] = dose: 200.0 mg/kg/injection, schedule: Q01DX009 (ip), vehicle: Klucel (hydroxypropylcellulose) (HPC)
[4] = dose: 200.0 mg/kg/injection, schedule: Q04DX003 (ip), vehicle: Klucel (hydroxypropylcellulose) (HPC)
[5] = dose: 400.0 mg/kg/injection, schedule: Q04DX003 (ip), vehicle: Klucel (hydroxypropylcellulose) (HPC)
[6] = dose: 6.25 mg/kg/injection, schedule: Q01DX009 (ip), vehicle: saline with Tween-80
[7] = dose: 12.5 mg/kg/injection, schedule: Q01DX009 (ip), vehicle: saline with Tween-80
[8] = dose: 25.0 mg/kg/injection, schedule: Q01DX009 (ip), vehicle: saline with Tween-80
[9] = dose: 50.0 mg/kg/injection, schedule: Q01DX009 (ip), vehicle: saline with Tween-80
[10] = dose: 100.0 mg/kg/injection, schedule: Q01DX009 (ip), vehicle: saline with Tween-80
[11] = dose: 200.0 mg/kg/injection, schedule: Q01DX009 (ip), vehicle: saline with Tween-80

## CN(CCO)C1=C(N2CC2)C(=O)C(N(C)CCO)=C(N2CC2)C1=O
dose: 200.0 micrograms/kg/injection, schedule: Q01DX009 (ip), vehicle: saline
  T/C: 116 % of control
dose: 400.0 micrograms/kg/injection, schedule: Q01DX009 (ip), vehicle: saline
  T/C: 157 % of control
dose: 800.0 micrograms/kg/injection, schedule: Q01DX009 (ip), vehicle: saline
  T/C: 228 % of control

## CC(C)OC(CCC#N)c1ccccc1 (centres undefined)
[1]
  T/C: 100 % of control
[2]
  T/C: 95 % of control
[3]
  T/C: 100 % of control
[4]
  T/C: 104 % of control
[5]
  T/C: 109 % of control

## CC(=O)CC(OC(=O)c1cc([N+](=O)[O-])cc([N+](=O)[O-])c1)(C(F)(F)F)C(F)(F)F
[6]
  T/C: 100 % of control
[7]
  T/C: 118 % of control
[8]
  T/C: 118 % of control

## CC1C[N+](C)(C)NC1=O (centres undefined)
dose: 50.0 mg/kg/injection, schedule: Q01DX001 (ip), vehicle: saline
  T/C: 100 % of control
dose: 200.0 mg/kg/injection, schedule: Q01DX001 (ip), vehicle: saline
  T/C: 100 % of control

## CCCCCCCCCCCCCCCCN(C)Cc1ccccc1
dose: 100.0 mg/kg/injection, schedule: Q04DX003 (ip), vehicle: saline
  T/C: 107 % of control
dose: 200.0 mg/kg/injection, schedule: Q04DX003 (ip), vehicle: saline
  T/C: 108 % of control
dose: 400.0 mg/kg/injection, schedule: Q04DX003 (ip), vehicle: saline
  T/C: 116 % of control

## C[n+]1c(-c2ccccc2)c2ccccc2c2ccccc21
dose: 0.75 mg/kg/injection, schedule: Q01DX009 (ip), vehicle: water
  T/C: 102 % of control
dose: 1.5 mg/kg/injection, schedule: Q01DX009 (ip), vehicle: water
  T/C: 105 % of control
dose: 1.5 mg/kg/injection, schedule: Q04DX003 (ip), vehicle: water
  T/C: 111 % of control
dose: 3.0 mg/kg/injection, schedule: Q01DX009 (ip), vehicle: water
  T/C: 105 % of control
dose: 3.0 mg/kg/injection, schedule: Q04DX003 (ip), vehicle: water
  T/C: 111 % of control
dose: 6.0 mg/kg/injection, schedule: Q04DX003 (ip), vehicle: water
  T/C: 93 % of control

## N#Cc1ccc(NC(=O)N(CCCl)N=O)cc1
dose: 0.29 mg/kg/injection, schedule: Q01DX009 (ip), vehicle: saline
  T/C: 122 % of control
dose: 0.37 mg/kg/injection, schedule: Q01DX009 (ip), vehicle: Klucel (hydroxypropylcellulose) (HPC)
  T/C: 116 % of control
dose: 0.44 mg/kg/injection, schedule: Q01DX009 (ip), vehicle: saline
  T/C: 122 % of control
dose: 0.5 mg/kg/injection, schedule: Q04DX003 (ip), vehicle: Klucel (hydroxypropylcellulose) (HPC)
  T/C: 103 % of control
dose: 0.8 mg/kg/injection, schedule: Q04DX003 (ip), vehicle: Klucel (hydroxypropylcellulose) (HPC)
  T/C: 107 % of control
dose: 1.0 mg/kg/injection, schedule: Q01DX009 (ip), vehicle: saline
  T/C: 162 % of control
dose: 1.56 mg/kg/injection, schedule: Q01DX009 (ip), vehicle: saline
  T/C: 153 % of control and 202 % of control
dose: 2.0 mg/kg/injection, schedule: Q04DX003 (ip), vehicle: Klucel (hydroxypropylcellulose) (HPC)
  T/C: 183 % of control
dose: 3.0 mg/kg/injection, schedule: Q01DX009 (ip), vehicle: Klucel (hydroxypropylcellulose) (HPC)
  T/C: 187 % of control
dose: 3.0 mg/kg/injection, schedule: Q04DX003 (ip), vehicle: Klucel (hydroxypropylcellulose) (HPC)
  T/C: 170 % of control
dose: 3.12 mg/kg/injection, schedule: Q01DX009 (ip), vehicle: Klucel (hydroxypropylcellulose) (HPC)
  T/C: 175 % of control
dose: 3.12 mg/kg/injection, schedule: Q01DX009 (ip), vehicle: saline
  T/C: 194 % of control
dose: 5.0 mg/kg/injection, schedule: Q04DX003 (ip), vehicle: Klucel (hydroxypropylcellulose) (HPC)
  T/C: 191 % of control and 200 % of control and 215 % of control
dose: 6.25 mg/kg/injection, schedule: Q01DX009 (ip), vehicle: Klucel (hydroxypropylcellulose) (HPC)
  T/C: 204 % of control
dose: 6.25 mg/kg/injection, schedule: Q01DX009 (ip), vehicle: saline
  T/C: 219 % of control
dose: 8.0 mg/kg/injection, schedule: Q04DX003 (ip), vehicle: Klucel (hydroxypropylcellulose) (HPC)
  T/C: 185 % of control and 210 % of control
dose: 12.0 mg/kg/injection, schedule: Q04DX003 (ip), vehicle: Klucel (hydroxypropylcellulose) (HPC)
  T/C: 245 % of control and 220 % of control
dose: 12.5 mg/kg/injection, schedule: Q01DX009 (ip), vehicle: Klucel (hydroxypropylcellulose) (HPC)
  T/C: 100 % of control
dose: 12.5 mg/kg/injection, schedule: Q01DX009 (ip), vehicle: saline
  T/C: 102 % of control
dose: 12.5 mg/kg/injection, schedule: Q04DX003 (ip), vehicle: Klucel (hydroxypropylcellulose) (HPC)
  T/C: 222 % of control
dose: 18.0 mg/kg/injection, schedule: Q04DX003 (ip), vehicle: Klucel (hydroxypropylcellulose) (HPC)
  T/C: 265 % of control and 110 % of control
dose: 25.0 mg/kg/injection, schedule: Q04DX003 (ip), vehicle: Klucel (hydroxypropylcellulose) (HPC)
  T/C: 109 % of control

## CCOC(=O)C(C(C)=O)C(C)C (centres undefined)
dose: 100.0 mg/kg/injection, schedule: Q01DX005 (ip), vehicle: other
  T/C: 112 % of control
dose: 200.0 mg/kg/injection, schedule: Q01DX005 (ip), vehicle: other
  T/C: 117 % of control
dose: 400.0 mg/kg/injection, schedule: Q01DX005 (ip), vehicle: other
  T/C: 109 % of control

## C=CCCC/C(C)=N/NS(=O)(=O)c1ccc(C)cc1
[9]
  T/C: 109 % of control
[10]
  T/C: 109 % of control
[11]
  T/C: 95 % of control

## Nc1nc(N=Nc2ccc(O)cc2)cc(=O)[nH]1
dose: 50.0 mg/kg/injection, schedule: Q01DX009 (ip), vehicle: other
  T/C: 106 % of control
dose: 100.0 mg/kg/injection, schedule: Q01DX009 (ip), vehicle: other
  T/C: 110 % of control
dose: 200.0 mg/kg/injection, schedule: Q01DX009 (ip), vehicle: other
  T/C: 103 % of control
dose: 400.0 mg/kg/injection, schedule: Q01DX009 (ip), vehicle: other
  T/C: 112 % of control

## O=C1c2ccccc2CCCC1N1CCOCC1 (centres undefined)
dose: 100.0 mg/kg/injection, schedule: Q04DX003 (ip), vehicle: saline with Tween-80
  T/C: 100 % of control
dose: 200.0 mg/kg/injection, schedule: Q04DX003 (ip), vehicle: saline with Tween-80
  T/C: 90 % of control
dose: 400.0 mg/kg/injection, schedule: Q04DX003 (ip), vehicle: saline with Tween-80
  T/C: 90 % of control

## Cc1nc2[nH][nH]c(=O)c2nc1C
[1]
  T/C: 100 % of control
[2]
  T/C: 104 % of control
[3]
  T/C: 110 % of control
[4]
  T/C: 92 % of control
[5]
  T/C: 100 % of control

## COc1ccc2c3c1OC1CC(O)C=CC31CCN(C)C2 (centres undefined)
dose: 5.0 mg/kg/injection, schedule: Q01DX010 (ip), vehicle: carboxymethylcellulose (CMC)
  T/C: 100 % of control

## O=C(O)COc1c(Br)cc(Br)cc1Br
dose: 50.0 mg/kg/injection, schedule: Q01DX009 (ip), vehicle: Klucel (hydroxypropylcellulose) (HPC)
  T/C: 90 % of control
[1]
  T/C: 90 % of control
[3]
  T/C: 110 % of control

## Cc1ccc(NCC2(/N=C/c3ccccc3)OC(CO)C(O)C2O)cc1 (centres undefined)
[2]
  T/C: 119 % of control
[3]
  T/C: 150 % of control
[4]
  T/C: 107 % of control
dose: 400.0 mg/kg/injection, schedule: Q01DX009 (ip), vehicle: Klucel (hydroxypropylcellulose) (HPC)
  T/C: 158 % of control
[5]
  T/C: 123 % of control

## O=C(O)c1ccc(C2CC2)cc1
[10]
  T/C: 95 % of control
[11]
  T/C: 90 % of control
dose: 400.0 mg/kg/injection, schedule: Q01DX009 (ip), vehicle: saline with Tween-80
  T/C: 90 % of control

## C=Cc1c(C)c(O)cc2c1-c1ccc(O)c(C)c1CC2
[6]
  T/C: 104 % of control
[7]
  T/C: 104 % of control
[8]
  T/C: 104 % of control
[9]
  T/C: 100 % of control

## O=C(N=Nc1c(O)[nH]c2ccccc12)C(=O)Nc1cccc(C(F)(F)F)c1
[9]
  T/C: 87 % of control
